From US20050216965A1, “Method of detecting and reducing boar taint” (UNIVERSITY OF GUELPH, priority 1998, published 2005)
Where a name gives a salt, the structure may show the parent alone. One block for each molecule: values may come before it.

Experiments:
CYP2E1 = CYP2E1 (Sus scrofa, UniProt P79383); conditions: uncastrated Yorkshire male pigs; 0.5 g/kg BW daily by gavage, day 14 to day 50; after day 27; P<0.05
Experimental: Eight uncastrated Yorkshire male pigs were utilized in the study. Four males were assigned to the control group while the remaining four were treated with 0.5 g/kg BW of ethanol daily by gavage. Ethanol is a well-established inducer of CYP2E1. Treatment began at day 14 and continued until day 50. Blood samples were collected weekly and plasma skatole levels were measured by HPLC.

cytochrome P450 = test system: cytochrome P450
Experimental: The metabolism of skatole was assayed in a medium containing 50 mM Tris-HCL buffer, pH 7.4, 10 mM potassium phosphate, 0.1 mM EDTA, 20% glycerol, 0.01 mM skatole and 1 mg/mL microsomel protein in a total volume of 2 mL. The reactions were started by addition of NADH and NADPH to 1 mM final concentration of each after 3 min of preincubation at 37° C. After 30 min at 37° C., the reactions were terminated by addition of 2 mL of ice-cold 0.2 M ammonium acetate buffer, pH 5.0.
Those incubations with no inhibitor added were regarded as controls. The effect of different P450 inhibitors on skatole metabolism was evaluated under the same conditions by including different concentrations of P450 inhibitors into the medium before preincubation.
Each assay was performed in duplicate. […] After adding ammonium acetate buffer, 5 μL of 0.01 mg/mL indole-3-acetonitrile was added to the reaction mixture as an internal standard. The mixture was then passed through a solid phase extraction tC18 cartridge (Waters Co., Milford, Mass.) previously conditioned with 2 mL of methanol and then 2 mL of water. The column was washed with 1 mL of water and skatole metabolites were eluted with 2×0.5 mL of acetonitrile. The acetonitrile was removed under a gentle stream of nitrogen at 40° C. and the metabolites were resuspended in 200 μl of acetonitrile for HPLC analysis. The HPLC equipment included a Spectra-Physics (San Jose, Calif., USA) SP8800 pump, SP8800 autosampler and SP4290 integrator, and a Phenomenex (Torrance, Calif., USA) Prodigy ODS-2 C18, 250×4.6 mm, 5 μm column. […] Injection volume was 100 μl.
For the purpose of the analysis, peak areas of the metabolites in control incubations were considered as 100%. Peak areas of the metabolites in the incubations with inhibitors were transformed to values of those for controls. The statistical model included the effect of the concentration of inhibitor and the effect of animal.

glucuronyl transferase = experiment: Conjugation of microsomal skatole metabolites with glucuronic acid (Trial II-c); type: in vitro ADME; conditions: pig liver microsomes, 1 mM UDP-GA, 30 min
Experimental: (§1) Trial II. For evaluation of skatole metabolite production (Trial II-a, n=22), 1 mg/ml of liver microsomes were incubated in Buffer 1,1 mM NADPH, 1 mM NADH, and 0.01 mM skatole in a total volume of 2 ml for 30 min at 37° C. as previously described (Babol et al., 1997). To determine which microsomal skatole metabolites are conjugated with sulfate (Trial II-b, n=3), the reaction mixture was first incubated for 30 min as in Trial II-a. PAPS was then added to 1 mM final concentration and the incubation continued for 30, 60 and 90 min. Control incubations were performed for the same period of time with no PAPS added. Assays to evaluate the conjugation of skatole metabolites with glucuronic acid (Trial II-c, n=3) were conducted in a similar way by adding 1 mM of UDP-GA after 30 min of initial incubation and continuing the incubation for a further 7.5, 15 and 30 min. […]
(§2) Trial II. […] The metabolites were separated with RP C18 column and detected by measuring UV absorbance at 250 nm and fluorescence with excitation and emission wavelengths set at 285 and 340 nm.
(§3) Trial II. The effect of time of incubation of skatole metabolites with PAPS (Trial I1-b) and UDPGA (Trial I1-c) on the concentrations of the metabolites was analyzed using untransformed values with the GLM procedure. […] The differences in the metabolic activities among the groups were analyzed with the GLM procedure.

sulfotransferase = experiment: Conjugation of microsomal skatole metabolites with sulfate (Trial II-b); type: in vitro ADME; conditions: pig liver microsomes, 1 mM PAPS, 90 min
Experimental: as §1, §2, §3

[1] = test system: thermostable phenol sulfotransferase; experiment: Sulfation of 5-OH-3MI by liver cytosol with phenolsulfotransferase inhibitors (Trial III); type: biochemical; conditions: pig liver cytosol, 0.01 mM 5-OH-3MI, 1 mM PAPS, 10 min
Experimental: Trial III. The assay of 5-OH-3MI sulfation in Trial III utilized 1 mg cytosolic protein incubated with 0.01 mM 5-OH-3MI and 1 mM PAPS in 0.05M Tris/HCl pH 7.4 buffer containing 5 mM MgC12 in a total volume of 250 μl. The incubations were carried out in a shaking water bath at 37° C. for 10 min and the reaction was stopped with 250 μL ice-cold acetonitrile. After the addition of acetonitrile, the mixture was vortexed and centrifuged at 4,000 g for 15 min. A 400 μL aliquot of the clear supernatant was diluted with 400 μL water and 100 μL of the mixture was analyzed immediately by high-performance liquid chromatography (HPLC) as described below. Conjugates were identified based on the following criteria: (1) no peaks corresponding to conjugates appeared when cytosol and/or PAPS were excluded from the incubations; (2) no peaks corresponding to conjugates appeared when boiled cytosol was used, and (3) the peaks corresponding to the conjugates disappeared after addition of 10 μl of type H-2 sulfatase to the incubation mixture and further incubation for 3 h at 37° C. in a shaking water bath. Sulfation activity was measured as the formation of sulfoconjugate per minute per mg of cytosolic protein.
The effects of the phenolsulfotransferase inhibitors PCP and DCNP on the sulfation of 5-OH-3MI were determined by including different final concentrations of PCP or DCNP (0.001, 0.01, 0.1, 1, 10, 100 μM) in the assays. PCP was dissolved in methanol (final assay concentration 1%, v/v) and control incubations for PCP inihibition studies contained 1% methanol. DCNP was dissolved in incubation buffer.
Trial III. 5-OH-skatole and its sulfate conjugate were separated using a previously reported binary gradient system method (Hernandez et al., 1991) with a reverse-phase Prodigy ODS, 5 μm, 250×4.6 mm column (Phenomenex, Torrance, Calif., USA). The mobile phase consisted of 0.05M ammonium acetate buffer pH 5.0, at a flow rate of 1.2 ml/min. A 25-min linear gradient from 10 to 60% acetonitrile was used, with initiation of the gradient 2 min after sample injection. 5-OH-skatole and its conjugate were determined by their fluorescence (excitation wavelength of 285 nm, emission wavelength of 350 nm). Typical retention times for 5-OH-skatole and its conjugate were 18.5 and 13.4 min, respectively.

CYP2E1, sequence (P79383 whole entry): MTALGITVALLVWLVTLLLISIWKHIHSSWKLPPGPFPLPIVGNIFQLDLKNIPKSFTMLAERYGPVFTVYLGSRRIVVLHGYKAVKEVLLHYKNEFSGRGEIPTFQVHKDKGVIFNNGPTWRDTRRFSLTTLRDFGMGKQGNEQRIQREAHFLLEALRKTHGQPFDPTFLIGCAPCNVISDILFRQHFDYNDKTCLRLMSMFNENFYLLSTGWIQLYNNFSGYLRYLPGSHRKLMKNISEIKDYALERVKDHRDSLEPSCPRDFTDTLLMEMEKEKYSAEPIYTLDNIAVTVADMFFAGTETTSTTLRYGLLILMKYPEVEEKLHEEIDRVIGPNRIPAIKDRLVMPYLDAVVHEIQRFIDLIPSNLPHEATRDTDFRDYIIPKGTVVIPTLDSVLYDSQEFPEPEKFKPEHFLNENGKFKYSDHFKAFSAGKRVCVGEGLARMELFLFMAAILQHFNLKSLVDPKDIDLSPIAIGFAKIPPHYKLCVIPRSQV

SMILES: C=CCSCC=C [DAS, diallyl sulfide]
Formation of all the other skatole metabolites, except for F-1 (cytochrome P450): inhibited
Skatole disappearance, effect in words (cytochrome P450): reduced

SMILES: Cc1c[nH]c2cc(O)ccc12 [pro-MII, 6-Hydroxy-3-methylindole]
Concentration in incubation with UDPGA, % of control incubations (glucuronyl transferase): 20%
Concentration in incubation with PAPS, % of control (sulfotransferase): 40%

SMILES: O=[N+]([O-])c1cc(Cl)c(O)c(Cl)c1 [DCNP, 2,6-dichloro-4-nitrophenol]
5-sulfatoxyskatole production, % of the control ([1]; inhibitor 10 μM): 13.8%
5-sulfatoxyskatole production, % of the control ([1]; inhibitor 100 μM): 7.1%

SMILES: Oc1c(Cl)c(Cl)c(Cl)c(Cl)c1Cl [PCP, Pentachlorophenol]
5-sulfatoxyskatole production, % of the control ([1]; inhibitor 10 μM): 35.3%
5-sulfatoxyskatole production, % of the control ([1]; inhibitor 100 μM): 8%

SMILES: CCCC(C(=O)OCCN(CC)CC)(c1ccccc1)c1ccccc1 [SKF 525A, SKF 525A hydrochloride (Proadifen)]
Amount of skatole remaining in the reaction mixture after incubation versus control (cytochrome P450): not affected
Formation of F-2, effect in words (cytochrome P450): reduced
Formation of F-3, effect in words (cytochrome P450): reduced
Formation of UV-3, effect in words (cytochrome P450): reduced

Further lines, results first:

Plasma skatole levels versus control group (CYP2E1): significantly lower
SMILES: CCO [ethanol]

Concentration in incubation with UDPGA, % of control incubations (glucuronyl transferase): 126.1%
SMILES: Cc1c[nH]c2ccccc12 [skatole, 3-methylindole]

Amount of skatole remaining in the reaction mixture after incubation versus control (cytochrome P450): higher
Formation of UV-3, effect in words (cytochrome P450): reduced
SMILES: CC(C)(C(=O)c1cccnc1)c1cccnc1 [metyrapone]
